Patent US20260240838A1, “USE OF NITRONE COMPOUNDS OR PHARMACEUTICALLY ACCEPTABLE SALTS THEREOF IN COMBINATION WITH SGLT-2 INHIBITORS” (GUANGZHOU MAGPIE PHARMACEUTICALS CO., LTD., priority 2022, published 2026)

Key:
[1] = FAERS-based analysis, rank order; cited from earlier work
db/db mice [2] = experiment: Blood glucose testing in db/db mice, TBN/TN-2 alone and with Empagliflozin (Example 1); type: in vivo; details: for Changes in blood glucose: 6 weeks, compared to Model group; for blood sugar (in words): in combination with a SGLT-2 inhibitor
Description: (§1) Db/db mice are type II diabetes mice caused by leptin receptor gene defect located on chromosome 4. They began to drink, eat, urinate and be obese at the age of 4 weeks. With the increase of age, they have obvious characteristics of hyperglycemia, hyperlipidemia and insulin resistance. Their pathogenesis is very similar to that of type II diabetes patients. With the aggravation of diabetes, db/db mice have a series of complications. The main pathological changes of kidney tissue are dilation of glomerular mesangial interstitium, thickening of glomerular basement membrane, excessive accumulation of extracellular matrix, etc. It is a good model to study the early morphological changes of DKD kidney.
(§2) 6-week-old db/db mice were given adaptive feeding for 1 week (i.e. 7 weeks), with TBN and TN-2 administered separately and in combination with Empagliflozin twice a day (fixed at 9:00-10:00 am and 3:00-4:00 pm, with an interval of 6 hours), for a continuous 6 weeks of administration.
During the experiment, blood was collected from the tail vein of mice before the start of administration (7 weeks old) to measure their blood glucose levels; After the completion of administration (at 13 weeks of mouse age, i.e. the end of the experiment), serum was taken and the blood glucose levels of each group of mice were measured using a fully automated biochemical analyzer.

db/db mice [3] = experiment: Detection of 24-hour urinary microalbumin in db/db mice by ELISA kit (Example 1); type: in vivo; details: for Changes in urinary microalbumin: 24-hour urine, compared to Model group; for 24-hour urinary microalbumin (in words): in combination with a SGLT-2 inhibitor
Description: as §1, §2
Db/db mice were tested for 24-hour urinary microalbumin at 4 and 6 weeks after drug treatment. Each group of mice was placed in a metabolic cage, drinking water freely, and 24-hour urine samples were collected. After centrifugation and precipitation, the levels of microalbuminuria in the 24-hour urine of each group of mice were detected using an ELISA kit.

IL-6 = experiment: Detection of the level of IL-6 in serum of db/db mice by ELISA kit (Example 1); type: in vivo; details: for Changes in IL-6: 6 weeks, serum of db/db mice, compared to Model group; for content of IL-6 in the serum of model animals (in words): alone or in combination with a SGLT-2 inhibitor (such as Entegliflozin)
Description: as §1, §2
(§3) After 6 weeks of administration, the whole blood was left to stand at room temperature for 1 hour. Then, it was transferred to a centrifuge and centrifuged at 3000 rpm for 10 minutes. The upper layer of serum was taken out and placed in an EP tube and stored in a −20° C. freezer for later use. Detection the level of IL-6 and IL-1β in serum of mice in each group using ELISA kit.

IL-1β = experiment: Detection of the level of IL-1β in serum of db/db mice by ELISA kit (Example 1); type: in vivo; details: 6 weeks, compared to Model group
Description: as §1, §2, §3

[4] = tested on: Patients of type II diabetic kidney disease; experiment: Clinical trial of TBN and TBN + SGLT2i: change of UACR relative to baseline (Example 3); type: in vivo, human
Protocol: The present invention adopts a test design of multicenter, randomized, double-blind, placebo-controlled parallel control.
Subjects of the experiments: Patients of type II diabetic kidney disease were taken as the subjects in the experiments (all signed the informed consent form). In at least 2 of the 3 morning urine in the screening period, the urinary microalbumin/creatinine ratio (UACR) is of ≥30 mg/g and <300 mg/g.
The medication schedule: Administration of 180 consecutive days. In this example, SGLT2i is commercially available SGLT2i, selected from Engliflozin, Dapagliflozin, and Cargliflozin: Engliflozin once daily, 10 mg; Dapagliflozin once daily, 10 mg; Kagliflozin once daily, 100 mg. In the three subjects in the 300 mg TBN+SGLT2i group, one subject took Engliflozin and two subjects took Dapagliflozin; in the three subjects in the 600 mg TBN+SGLT2i group, all took Dapagliflozin; in the […] in the 1200 mg TBN+SGLT2i group, two subjects took Canagliflozin, one subject took Entegliflozin, and one subject took Dapagliflozin; in the SGLT2i group, one subject took Dapagliflozin.

db/db mice [5] = experiment: Urinary albumin creatinine ratio in db/db mice; type: in vivo; details: in combination with a SGLT-2 inhibitor
[6] = Empagliflozin 2.5 mg/kg twice/day i.g.
[7] = Empagliflozin 5 mg/kg twice/day i.g.

In the case of CCOc1ccc(Cc2cc([C@@H]3O[C@H](CO)[C@@H](O)[C@H](O)[C@H]3O)ccc2Cl)cc1 [Dapagliflozin], the “signal intensity comparison of urinary tract infections” value [1] is listed as “dapagliflozin>canagliflozin>empagliflozin”.
With Cc1nc(C)c(/C=[N+](\[O-])C(C)(C)C)nc1C [TBN, tetramethylpyrazine nitrone] the “Changes in blood glucose” value (db/db mice [2]; TBN 10 mg/kg twice/day i.g.) was −0.80%, the “Changes in blood glucose” value (db/db mice [2]; TBN 30 mg/kg twice/day i.g.) was −17.13% and the “blood sugar (in words)” value (db/db mice [2]) was “synergistically lower”. For the same compound, the “Changes in urinary microalbumin” value (db/db mice [3]; TBN 10 mg/kg twice/day i.g.) was −0.61%, the “Changes in urinary microalbumin” value (db/db mice [3]; TBN 30 mg/kg twice/day i.g.) was −23.09% and the “24-hour urinary microalbumin (in words)” value (db/db mice [3]) was “reduce”. For the same compound, the “Changes in IL-6” value (IL-6; TBN 10 mg/kg twice/day i.g.) was −36.43%, the “Changes in IL-6” value (IL-6; TBN 30 mg/kg twice/day i.g.) was −58.34% and the “content of IL-6 in the serum of model animals (in words)” value (IL-6) was “significantly reduce”. For the same compound, the “Changes in IL-1β” value (IL-1β; TBN 10 mg/kg twice/day i.g.) was −5.88%, the “Changes in IL-1β” value (IL-1β; TBN 30 mg/kg twice/day i.g.) was 0.20% and the “Percentage of changes in UACR relative baseline, Day 90 LS Mean” value ([4]; TBN 300 mg twice/day po, n = 18, Day 90) was −1.48%. The “Percentage of changes in UACR relative baseline, Day 90 LS Mean” value ([4]; TBN 600 mg twice/day po, n = 19, Day 90) was −43.32%, the “Percentage of changes in UACR relative baseline, Day 90 LS Mean” value ([4]; TBN 1200 mg twice/day po, n = 14, Day 90) was −37.08% and the “urinary albumin creatinine ratio (in words)” value (db/db mice [5]) was “reduce”.
For Cc1nc(/C=[N+](\[O-])C(C)(C)C)c(C)nc1/C=[N+](\[O-])C(C)(C)C [TN-2], the “blood sugar (in words)” value (db/db mice [2]) was “synergistically lower”, the “24-hour urinary microalbumin (in words)” value (db/db mice [3]) was “reduce” and the “content of IL-6 in the serum of model animals (in words)” value (IL-6) was “significantly reduce”. For the same compound, the “urinary albumin creatinine ratio (in words)” value (db/db mice [5]) was “reduce”.
For OC[C@H]1O[C@@H](c2ccc(Cl)c(Cc3ccc(O[C@H]4CCOC4)cc3)c2)[C@H](O)[C@@H](O)[C@@H]1O [Empagliflozin, reference compound], the “Changes in blood glucose” value (db/db mice [2]; [6]) was −38.03%, the “Changes in blood glucose” value (db/db mice [2]; [7]) was −44.33% and the “Changes in urinary microalbumin” value (db/db mice [3]; [6]) was −4.18%. The “Changes in urinary microalbumin” value (db/db mice [3]; [7]) was −18.62%, the “Changes in IL-6” value (IL-6; [6]) was −8.55% and the “Changes in IL-6” value (IL-6; [7]) was −75.05%. The “Changes in IL-1β” value (IL-1β; [6]) was −2.36%, the “Changes in IL-1β” value (IL-1β; [7]) was −16.32% and the “signal intensity comparison of urinary tract infections” value [1] was “dapagliflozin>canagliflozin>empagliflozin”.
